Results taken from patent US20200121704A1, “METHODS FOR TREATING HYPERTENSION AND ARTERIAL STIFFNESS” (THE REGENTS OF THE UNIVERSITY OF COLORADO, A BODY CORPORATE, priority 2017, published 2020).

Assays:
Format in all cases: in vivo, human
[1] = Complete blood count (clinical laboratory values at end of each intervention phase)
Method: (§1) Sixty subjects were consented for this study. This study was conducted in the Integrative Physiology of Aging Laboratory and the Clinical and Translational Research Center (CTRC) at the University of Colorado Boulder. All blood assays were performed at either Boulder Community Hospital or the University of Colorado Denver Anschutz Medical Campus CTRC Core Laboratory. All testing sessions were performed after an overnight fast and 24-hour abstention from exercise and alcohol consumption. All subjects refrained from all prescription medications for 24 hours and over the counter medications for 48 hours prior to all testing visits.
(§2) Clinical laboratory values were obtained from blood samples collected at the end of each intervention phase in 21 subjects. Complete blood work was not obtained in three subjects due to a failed catheterization during at least one of the testing phases.

[2] = test system: healthy middle-aged and older adults; assay: Carotid-femoral pulse wave velocity (large elastic artery stiffness)
Method: Carotid-femoral PWV, the gold-standard assessment of elastic artery stiffness in humans, was measured using transcutaneous tonometry. Pressure waveforms were recorded simultaneously from the carotid and femoral arteries using two identical non-invasive pressure tonometers (SPT-301, Millar Instruments, Houston, Tex., USA). The transit distance was calculated as the distance between the carotid and femoral recording sites, after subtracting the distance between the carotid recording site and the sternal notch. PWV was calculated as the transit distance divided by the time delay between the foot of each pressure wave.

[3] = Comprehensive metabolic panel (blood chemistry, renal function, liver enzymes)
Method: as §1, §2

[4] = test system: healthy middle-aged and older adults; assay: Resting brachial artery blood pressure
Method: Resting brachial artery blood pressure and heart rate were measured in the seated position after 5 minutes of rest in a quiet examination room using a semi-automated blood pressure device (DYNAMAP™ XL, Johnson & Johnson, Arlington, Tex., USA). Measurements were made multiple times from the non-dominant arm, with 2 minutes of quiet rest between recordings. Repeat measurements were made until 3 blood pressure values were obtained that were within 5 mmHg of one another. These values were then averaged to determine resting systolic and diastolic blood pressure, pulse pressure, mean arterial pressure, and resting heart rate. Baseline blood pressure values were obtained using the above-described protocol on two separate testing days prior to the initiation of the first intervention arm and were averaged to determine baseline blood pressure status (i.e., normotensive vs. pre-hypertensive) for subsequent analyses.
To determine if this effect was greater in subjects with elevated baseline blood pressure, subjects were characterized as either normotensive (SBP <120 mmHg; DBP <80 mmHg) or pre-hypertensive (SBP 120-139 mmHg; DBP 80-89 mmHg) based on their average baseline blood pressure obtained on two separate days. The inventors observed a near significant interaction between treatment condition (NR vs. placebo) and blood pressure status for systolic blood pressure (FIG. 3A; P=0.07), with no effect on diastolic pressure (FIG. 3C), and […] on mean arterial pressure (FIG. 3E; P=0.08). […] Diastolic blood pressure also tended to be reduced in prehypertensive individuals; however this effect was lower in magnitude (3 mmHg reduction) and approached significance (FIG. 3D; P=0.09).

[5] = NR condition, end of 6-week phase, mean ± SEM, 21 subjects
[6] = NR condition, end of 6-week phase, mean ± SEM, 21 subjects, *P < 0.05 vs. placebo
[7] = all subjects, NR condition compared with placebo, P<0.05
[8] = pre-hypertensive individuals, P<0.01

**Q.** Which HCT [1, 5] does the source give for `NC(=O)c1ccc[n+]([C@@H]2O[C@H](CO)[C@@H](O)[C@H]2O)c1` [NR, nicotinamide riboside] here?
**A.** 41.1 ± 0.7%

**Q.** And the HGB [1, 5]?
**A.** 13.9 ± 0.2 g/dL

**Q.** And the MCH [1, 5]?
**A.** 31.2 ± 0.3 pg

**Q.** And the MCHC [1, 5]?
**A.** 33.8 ± 0.2 g/dL

**Q.** And the MCV [1, 5]?
**A.** 92.3 ± 0.9 fL

**Q.** What about the RBC [1, 5] of the same compound?
**A.** 4.5 ± 0.1 10^6/μL

**Q.** And the RDW [1, 5]?
**A.** 13.0 ± 0.2%

**Q.** What about the WBC [1, 5] of the same compound?
**A.** 4.3 ± 0.3 10^3/μL

**Q.** And the basophils absolute [1, 5]?
**A.** 0.05 ± 0.01 10^3/μL

**Q.** And the eosinophils absolute [1, 5]?
**A.** 0.14 ± 0.03 10^3/μL

**Q.** What about the lymphocytes absolute [1, 5] of the same compound?
**A.** 1.18 ± 0.08 10^3/μL

**Q.** And the lymphocytes relative [1, 5]?
**A.** 29.5 ± 1.7%

**Q.** And the monocytes absolute [1, 5]?
**A.** 0.52 ± 0.08 10^3/μL

**Q.** And the monocytes relative [1, 5]?
**A.** 10.7 ± 0.6%

**Q.** What about the neutrophils absolute [1, 5] of the same compound?
**A.** 2.41 ± 0.19 10^3/μL

**Q.** And the neutrophils relative [1, 5]?
**A.** 55.3 ± 1.4%

**Q.** What about the platelet count [1, 5] of the same compound?
**A.** 206 ± 14 10^3/μL

**Q.** And the MPV [1, 6]?
**A.** 10.7 ± 0.2* fL

**Q.** And the basophils relative [1, 6]?
**A.** 1.3 ± 0.2* %

**Q.** And the eosinophils relative [1, 6]?
**A.** 2.9 ± 0.5* %

**Q.** What about the “Difference between treatment conditions for hematology” value ([1]; NR vs placebo) of the same compound?
**A.** No meaningful differences

**Q.** And the “All clinical laboratory values versus normal reference range” value ([1]; all clinical laboratory values (Tables 3-5), NR condition)?
**A.** remained within the normal reference range

**Q.** What about the “Relevance of changes in mean platelet volume and relative distribution of white blood cell types” value ([1]; statistically significant difference between conditions, extremely low effect sizes) of the same compound?
**A.** physiologically insignificant

**Q.** What about the “PWV lowering by baseline blood pressure status” value ([2]; all subjects, regardless of baseline blood pressure status) of the same compound?
**A.** lowered PWV by a similar degree in all subjects

**Q.** And the “Large elastic artery stiffness, aortic pulse wave velocity (PWV)” value ([2]; following NR supplementation compared with placebo)?
**A.** significantly reduced

**Q.** And the “ALT (SGPT)” value [3, 5]?
**A.** 30.8 ± 2.4 IU/L

**Q.** And the “AST (SGOT)” value [3, 5]?
**A.** 32.1 ± 1.5 IU/L

**Q.** And the BUN [3, 5]?
**A.** 17 ± 1 mg/dL

**Q.** What about the CO2 [3, 5] of the same compound?
**A.** 26 ± 1 mEq/L

**Q.** What about the albumin [3, 5] of the same compound?
**A.** 3.6 ± 0.1 g/dL

**Q.** And the alk phosphatase [3, 5]?
**A.** 63.4 ± 2.9 IU/L

**Q.** And the calcium [3, 5]?
**A.** 9.2 ± 0.1 mg/dL

**Q.** And the chloride [3, 5]?
**A.** 104 ± 1 mEq/L

**Q.** And the creatinine [3, 5]?
**A.** 0.9 ± 0.03 mg/dL

**Q.** And the eGFR [3, 5]?
**A.** 74 ± 3 ml/min/1.73 m^2

**Q.** What about the glucose [3, 5] of the same compound?
**A.** 87 ± 1 mg/dL

**Q.** And the potassium [3, 5]?
**A.** 4.2 ± 0.1 mEq/L

**Q.** What about the sodium [3, 5] of the same compound?
**A.** 139 ± 1 mEq/L

**Q.** What about the total bilirubin [3, 5] of the same compound?
**A.** 0.8 ± 0.1 mg/dL

**Q.** And the total protein [3, 5]?
**A.** 6.3 ± 0.1 g/dL

**Q.** What about the “Difference between treatment conditions for blood chemistry (including markers of renal function and liver enzymes)” value ([3]; NR vs placebo) of the same compound?
**A.** No meaningful differences

**Q.** What about the “Mean arterial blood pressure” value ([4]; all subjects) of the same compound?
**A.** moderately lowered

**Q.** What about the “Resting diastolic blood pressure” value [4, 7] of the same compound?
**A.** significantly reduced

**Q.** And the “Resting systolic blood pressure” value [4, 7]?
**A.** significantly reduced

**Q.** What about the “Pre-hypertension, hypertension, and arterial stiffness” value ([4]; human subjects, 500 mg twice daily, within 6 weeks or less) of the same compound?
**A.** significant improvements

**Q.** What about the Blood pressure ([4]; normotensive individuals) of the same compound?
**A.** no effect

**Q.** And the “Lowering of systolic blood pressure compared with placebo” value [4, 8]?
**A.** 8 mmHg

**Q.** And the “Mean (arterial) pressure” value [4, 8]?
**A.** significant reduction

**Q.** And the “Reduction of diastolic blood pressure” value ([4]; prehypertensive individuals, P=0.09)?
**A.** 3 mmHg
